Experimental data: US20240384232A1, “CLINICAL-GRADE THERAPEUTIC PROGENITORS GENERATED FROM TANKYRASE/PARP-INHIBITED PLURIPOTENT STEM CELL BANKS” (THE JOHNS HOPKINS UNIVERSITY, priority 2022, published 2024)
Entries after “also recorded” stand apart in the source; their conditions may differ.

Columns and labels:
E5C3 CB-hiPSC = test: Retention of TRA-1-81+SSEA4+ phenotype by FACS after removing single inhibitors from LIF-4i; format: cell-based, human; details: for Effect of removing the inhibitor from LIF-4i on the TRA-1-81+SSEA4+ phenotype: E5C3 kept in LIF-4i for 3 passages (6 days), then inhibitor removed, feeder-free
Description: FIGS. 8A-8C. […] Alternatively, E5C3 CB-hiPSC were maintained in LIF-4i for 3passages (6 days) and then cither XAV939 (E5C3-XAV939, square datapoints, dotted line) or Go6983 (E5C3 LIF-3i, triangles, dashed line) were removed from the LIF-4i formulation. […] (8B) Representative photomicrographs and flow cytometry plots of CB-hiPSC when continuously cultured in LIF-4i (LIF+4i, 6 passages), or when cultured in LIF-4i for 3 passages and then transferred into FF conditions that omitted for 3 passages the PKC inhibitor Go6983 (LIF+3i) or the tankyrase/PARP inhibitor XAV939 (without XAV939) or without XAV939 and reducing the concentration of CHIR99021 (without XAV939, CHIR 1 uM).

[1] = system: tankyrase PARylating activity and PARP1-mediated PARylation; details: 293T cells; cited from earlier work
[2] = system: tankyrases 1 and 2 (TANK 1/2) and AXIN-1 proteins; test: Western blot of tankyrase-regulated proteins in primed vs LIF-4i TIRN cultures; format: cell-based, human; details: LIF-4i (contains XAV939) vs isogenic primed E8
Description: Western blots were performed of primed vs. TIRN lysates of hESC RUES02 and three independent XF/FF UTIRN CB-hiPSC lines (E32C1XF, E32C4XF, E32C6XF). ACTIN, HSP90 and total STAT3 served as internal loading controls. Western blots of XAV939-inhibited proteolysis of tankyrases 1 and 2(TANK 1/2) and AXIN-1 proteins in isogenic primed vs. TIRN conditions for TIRN-reverted RUES02 and XF/FF CB-hiPSC lines. Western blot analysis of hPSC lines in primed (E8) and naïve (LIF-4i) cultures for expression of phosphorylated (phospho.) STAT3 and ERK1/2, tankyrase 1/2 and axin1.
Cell lysates were prepared from parallel primed (E8) and TIRN (LIF-4i) cultures and 20 or 35 ug of proteins were loaded per lane.

[3] = system: LIF-4i UTIRN-CB-hiPSC (E32C6XF); test: Cell attachment during passaging onto Vitronectin-XF-coated plates; format: cell-based, human; details: overnight exposure, 2-5 uM
Description: FIGS. 9A-9C. Optimization of the transition step from E8 primed hPSC conditions to LIF-4i TIRN conditions: clonal cell passaging. (9A) Clonal efficiency during the first passage in LIF-4i TIRN conditions for hESC line (RUES01). Supplementation of LIF-3i with forskolin and purmophamine (i.e., LIF-5i) and brief adaptation of primed hPSC was previously shown to facilitate clonal transition and survival of primed cells to TIRN hPSC when subsequently cultured continuously in LIF-3i TIRN conditions on feeders. […] Therefore, the brief LIF-5i adaptation period was limited to only overnight exposure prior to passaging. […] (9A—middle, right panels) In contrast, high density culture in E8 (e.g., up to 6 days) prior to passaging in LIF-4i negatively impacted the transition into LIF-4i TIRN conditions. Photomicrographs represent primed cultures immediately prior to passaging into LIF-4i TIRN conditions. (9B) Requirement for ROCK inhibitor Y27632during passaging.
FIG. 7A outlines the transition between primed (i.e. E8) and the LIF-4i FF-TIRN-reverted system. Upon passaging into LIF-4i, hPSC immediately adopt a smaller dome-shaped morphology that expands from single cells. Photomicrographs document the morphology of the hiPSC line 6.2 during the first passages into LIF-4i (bulk passaging without colony picking) and after stable expansion for 10 consecutive passages (FIG. 7B). […]

[4] = system: Primed E8 and LIF-4i UTIRN-hiPSC; test: DNA damage induction with radiomimetic, Western blot of DNA repair machinery; format: cell-based, human; details: 4 hours treatment; TIRN-hPSC vs primed E8 hPSC
Description: FIGS. 20A-20B. Induction of DNA damage in primed hPSC and XF/FF UTIRN-hPSC following exposure to the radiomimetic DNA damage inducing agent neocarzinostatin (NCS). Unlike somatic cells, naïve mouse embryonic stem cells (ESC) employ homologous recombination machinery to repair double strand breaks. However, imbalanced levels of DNAPKc in mouse ESC results into poor capacity for rejoining of radiation-induced DNA double-strand breaks in comparison to human primed ESC.
Methods. Conventional (primed) XF CB-hiPSC lines and control H9 hESC were grown in E8 medium. Isogenic TIRN-hPSC were cultured in parallel using LIF-4i. For Western blotting, whole cell lysates were prepared in RIPA buffer, 1.5 mM EDTA with protease inhibitor. Protein lysates were quantified using the BCA assay. Equal amounts of total protein lysate (e.g., 20 μg) were loaded into precast polyacrylamide gradient gels, size-separated using the Mini-PROTEAN electrophoresis system and blotted onto PDVF membranes for chemiluminescent analysis. Primed hPSC and isogenic TIRN-hPSC were assayed for endogenous DNA damage during routine culture (FIG. 20) or upon DSB induction using the radiomimetic agent neocarzinostatin (NCS). In these experiments, hPSC were treated for 4 hours with NCS before preparing lysates. […]

Cc1cnc(-c2cnc(NCCNc3ccc(C#N)cn3)nc2-c2ccc(Cl)cc2Cl)[nH]1 [CHIR99021, 6-[[2-[[4-(2,4-Dichlorophenyl)-5-(5-methyl-1H-imidazol-2-yl)-2-pyrimidinyl]amino]ethyl]amino]-3-pyridinecarbonitrile]
Rescue of XAV939 depletion by reduced CHIR99021 concentration (E5C3 CB-hiPSC; E5C3, without XAV939, CHIR99021 @ 1 uM): not rescued

COc1ccc2c(c1)c(C1=C(c3c[nH]c4ccccc34)C(=O)NC1=O)cn2CCCN(C)C [Go6983]
Effect of removing the inhibitor from LIF-4i on the TRA-1-81+SSEA4+ phenotype (E5C3 CB-hiPSC): hiPSC started differentiating after a few days without Go6983

Oc1nc(-c2ccc(C(F)(F)F)cc2)nc2c1CSCC2 [XAV939]
Effect on tankyrase and PARP1-mediated PARylation [1]: downregulate tankyrase PARylating activity, but also PARP1-mediated PARylation
Levels of tankyrase-PARylation-regulated proteins (AXIN1, tankyrases) [2]: tankyrase auto-PARylation and proteolysis is inhibited by XAV939; also recorded: upregulated
Effect of removing the inhibitor from LIF-4i on the TRA-1-81+SSEA4+ phenotype (E5C3 CB-hiPSC): rapid loss of TRA-1-81 and SSEA4 expression

C[C@@H](N)[C@H]1CC[C@H](C(=O)Nc2ccncc2)CC1 [Y-27632]
Promotion of cell attachment during passaging [3]: sufficient and required to promote efficient attachment

neocarzinostatin [NCS]
phospho-H2AX response to DSB induction [4]: elevated levels of phospho-H2AX
